{
  "source": "patent US20260041694A1",
  "about": "“Udonitrectag For Topical Use In The Treatment Of Dermatological Diseases” (MIMETECH S.R.L., priority 2022, published 2026)",
  "key": {"[1]": {"system": "human keratinocytes (HACAT cell line)", "test": "In vitro wound healing model, scratched keratinocyte monolayer", "type": "cell-based", "settings": "50 μM MT8, compared to control medium", "procedure": "To evaluate whether MT8 is able to induce faster healing of injured human keratinocytes (HACAT cell line) monolayers, an in vitro “wound healing” model was used. HACAT cells were seeded in 6-well culture dishes and grown to 90%-95% confluency. A standardized wound was created by scratching the HACAT cell monolayer with a sterile micropipette tip under an inverted microscope. Then, the cells were washed with PBS and treated with 50 μM MT8 or 4 nM NGF, and images of the wound healing process were recorded at different time points."}, "male C57BL/6 mice": {"system": "male C57BL/6 mice", "test": "In vivo model of androgenetic alopecia (DHT-injected mice)", "settings": "Udonitrectag 100 μM in PBS, topical twice a day for 2 weeks; vs vehicle", "procedure": "Udonitrectag was studied in an in vivo model of androgenetic alopecia.\nFor this purpose, male C57BL/6 mice were shaved with an animal clipper at 8 weeks of age, when all follicles are in the telogen phase. After depilation, 4 mg of DHT (dissolved in 100 μL of ethanol) were injected subcutaneously into the back of each animal. The mice were then divided into two groups: vehicle-treated and treated with Udonitrectag 100 μM in PBS. Udonitrectag 100 μM solution, or vehicle (PBS only) were applied topically twice a day for 2 weeks and hair growth was recorded at the beginning and at the end of treatment."}, "skin lesions / wounds": {"system": "skin lesions / wounds", "test": "Topical treatment of skin lesions and wounds in patients (Examples 19-29)", "type": "in vivo, human", "settings": "topical application", "quoted_text": "Inoperable antibiotic multi-resistance. […] The jagged edges of the lesion are erythematous and infected. The periwound skin is erythematous and edematous, with erythema extending to the malleolar area. The lesion is lightly exuding, with foul-smelling, serous exudate. Contaminated/infected wound. When changing the dressing, the pain expressed is equal to 8 (VAS pain scale); there is still discomfort and sometimes pain even when the dressing is not changed. Complex wound due to comorbidities. • Treatment with Udonitrectag: Wound cleaning performed with sterile saline solution (0.9% sodium chloride) and Microdacyn, followed by Urgotul and finally 1% Udonitrectag gel-cream, covered with a light dressing; 2 dressing changes per week for a total of 5 dressings with 1% Udonitrectag gel-cream."}, "[2]": {"system": "psoriasis lesions on the calves of both legs", "test": "Treatment of psoriasis in a patient", "type": "in vivo, human", "settings": "one patient", "source_text": "A patient diagnosed with psoriasis having lesions on the calves of both legs underwent the following treatment:\n• FAGRON: galenic preparation (0.05% clobetasol propionate, 10% urea in occluvan q.s. to 100%)"}, "[3]": {"system": "Human Umbilical Vein Endothelial Cells (HUVECs)", "test": "In vitro AGE-induced endothelial dysfunction, ATP content by CellTiter Glo", "type": "cell-based", "settings": "20 µM MT8; HUVECs on ECM-AGE-coated plates, 4 days", "procedure": "BSA-AGE and ECM-AGE were produced by Maillard reaction and Amadori rearrangement and used to evaluate oxidative stress and apoptosis process induced by AGEs in endothelial cell cultures.\nTo evaluate whether MT8 is able to counteract AGE-induced endothelial cell dysfunction, Human Umbilical Vein Endothelial Cells (HUVECs) were seeded on ECM-AGE-coated plates and incubated with complete growth medium, in the presence or absence of 20 µM MT8, or 2 nM NGF+2 nM BDNF for 4 days. The cells were then lysed with 100 µL of CellTiter Glo, which allows for ATP release from the cells. The ATP content (directly proportional to cell viability) was measured by luciferase assay."}},
  "data": [
    {"substance": "(1S,4R,5R,7S)-3,4-dibenzyl-2-oxo-6,8-dioxa-3-azabicyclo[3.2.1]octane-7-carboxylic acid lysine salt [Udonitrectag]", "values": [
      {"measurement": "wound repair process (wound distances as a function of time)", "setting": "[1]", "result": "induces a faster repair process"},
      {"measurement": "hair regrowth", "setting": "male C57BL/6 mice", "result": "induces hair regrowth much faster and more intensively than vehicle treatment"},
      {"measurement": "healing of skin lesions incurable with other treatments (FIGS. 6-16)", "setting": "skin lesions / wounds", "result": "healing of severe skin lesions"},
      {"measurement": "psoriasis status at skin examination two years after the end of the treatment", "setting": "[2]; left and right leg, both legs last treated with Udonitrectag 0.5% gel-cream", "result": "completely healed"},
      {"measurement": "improvement of psoriatic lesions during treatment", "setting": "[2]; topical, Udonitrectag as 0.5% gel-cream, regimen per leg over days 1-30", "result": "produced visible improvements in the lesions"},
      {"measurement": "endothelial cell viability (ATP content)", "setting": "[3]", "result": "able to maintain endothelial cell viability"}
    ]}
  ]
}
